Test results reported in the NIST ThermoML archive (doi:10.1016/j.jct.2016.04.001).
Numbers after ± are expanded uncertainties.

Columns and labels:
[1] = 296 K; 101.33 kPa; Crystal; X-ray diffraction
[2] = molar heat capacity at constant pressure; conditions: 101.33 kPa, Crystal, Small sample (50 mg) DSC

SMILES	mass density [1] [kg/m3]	molar heat capacity at constant pressure ([2]; 283.15 K) [J/K/mol]	molar heat capacity at constant pressure ([2]; 288.15 K) [J/K/mol]	molar heat capacity at constant pressure ([2]; 293.15 K) [J/K/mol]	molar heat capacity at constant pressure ([2]; 298.15 K) [J/K/mol]	molar heat capacity at constant pressure ([2]; 303.15 K) [J/K/mol]	molar heat capacity at constant pressure ([2]; 308.15 K) [J/K/mol]	molar heat capacity at constant pressure ([2]; 313.15 K) [J/K/mol]	molar heat capacity at constant pressure ([2]; 318.15 K) [J/K/mol]	molar heat capacity at constant pressure ([2]; 323.15 K) [J/K/mol]	molar heat capacity at constant pressure ([2]; 328.15 K) [J/K/mol]	molar heat capacity at constant pressure ([2]; 333.15 K) [J/K/mol]	molar heat capacity at constant pressure ([2]; 338.15 K) [J/K/mol]	molar heat capacity at constant pressure ([2]; 343.15 K) [J/K/mol]	molar heat capacity at constant pressure ([2]; 348.15 K) [J/K/mol]	molar heat capacity at constant pressure ([2]; 353.15 K) [J/K/mol]
CC(C)(C)C(O)/C(=C\c1ccc(Cl)cc1Cl)n1cncn1 (configuration not stated) [Diniconazole]	1323 ± 7	360.4 ± 9.1	367.41 ± 9.2	374.58 ± 9.4	381.72 ± 9.6	388.72 ± 9.8	395.47 ± 9.9	401.89 ± 10	407.93 ± 10	413.6 ± 10	418.9 ± 11	423.89 ± 11	428.65 ± 11	433.27 ± 11	437.91 ± 11	442.73 ± 11
CCCCC(O)(Cn1cncn1)c1ccc(Cl)cc1Cl (configuration not stated)	1331 ± 7	342.68 ± 8.7	351.02 ± 8.9	358.22 ± 9.1	364.66 ± 9.2	370.65 ± 9.4	376.44 ± 9.5	382.23 ± 9.7	388.15 ± 9.8	394.25 ± 10	400.53 ± 10	406.94 ± 10	413.34 ± 10	419.55 ± 11	425.32 ± 11	430.33 ± 11
